The values that follow come from patent US20130123358A1, “Metabolic Benefits to Butyrate as a Chronic Diet Supplement” (priority 2009, published 2013).

The test system of this series is C57BL/6J mice on high fat diet. The series can be described thus: Energy metabolism and body composition in diet-induced obesity, butyrate started with HFD. The series is classed as in vivo, mouse. As for the experimental part:
Male C57BL/6J (4 weeks in age) and ob/ob mice (4 weeks in age) were purchased from the Jackson Laboratory (Bar Harbor, Me.). After one week quarantine, the C57BL/6J mice were fed on the high fat diet (HFD, D12331, Research Diets, New Brunswick, N.J.), which contains 58% calories in fat. The ob/ob mice were fed on Chow diet (5001, Lab Diet) that contains 13.4% calories in fat. All of the mice were housed in the animal facility with a 12:12-h light-dark cycle and constant temperature (22-24° C.). The mice were free to access water and diet. All procedures were performed in accordance with National Institute of Health guidelines for the care and use of animals and approved by the Institute Animal Care and Use Committee at the Pennington Biomedical Research Center.
Sodium butyrate was administrated through dietary supplementation. Sodium butyrate (#303410, Sigma) was incorporated into the HFD evenly through blending the diet and sodium butyrate together at 400 rpm in a food processor. Sodium butyrate (50 g) was used in 1 kg diet to reach a dose of 5% w/w. The sodium butyrate containing diet was pelleted and stored in a −20° C. freezer. Trichostatin A (TSA) (T-1052, A.G. Scientific Inc. San Diego, Calif.) was dissolved in DMSO, and diluted in 0.9% saline at 2:98 ratio. The TSA solution (200 ul) was administrated by intra-peritoneal (i.p.) injection to reach a dose of […]. The control mice were administrated with the same volume of vehicle. 50 ml of tributyrin (#113026, Sigma) was incorporated into one kilogram of Chow diet in powder to reach a dose of 5% w/w in mice.
Body composition was measured using quantitative nuclear magnetic resonance (NMR) as previously described (15). In the test, a conscious and unrestrained mouse was placed in a small tube one at a time and individually tested using a Brucker model mq10 NMR analyzer (Brucker, Canada, Milton ON, Canada). The fat and lean mass were recorded within 1 min. Measurements were made in triplicate for each mouse.
Energy expenditure, respiratory exchange ratio (RER), spontaneous physical movement, and food intake were measured simultaneously for each mouse with the Comprehensive Laboratory Animal Monitoring System (Columbus Instruments, Columbus, Ohio) as described previously (15). The temperature in the metabolic chamber was 24° C. The mice were housed individually in the metabolic chamber. After 48 h of adaptation, the data were recorded for all parameters and used in analysis of the energy metabolism.
Butyrate was initially tested for prevention of dietary obesity. In the diet-induced obesity model, the butyrate supplementation started at the beginning of high fat diet (HFD) feeding. The plain HFD was used in the control group. Calorie intake was monitored four times in the first ten weeks. After normalization with body weight, the calorie intake was reduced with the increase in age.
Energy expenditure was examined in C57BL/6J mice using the metabolic chamber at the first week and the tenth week on HFD (16 weeks in age). In this study, sodium butyrate was used at 5% w/w in HFD. […] Food intake was monitored daily for 5 days at each time point. Average daily food intake (g) was converted into K calorie and normalized with body weight (kg) and 24 hours. […] FIG. 1E illustrates the body weight of the mice over 16 weeks. FIG. 1F illustrates the body fat content as determined by NMR expressed as a percentage of body weight. FIG. 1G illustrates the body muscle content expressed as a percentage of body weight. […] Feces were collected in the cages during a 24 hr period on HFD at 12 weeks, and the total lipids were extracted and quantified (P>0.05, n=5). […] The frequency of horizontal movement was shown for day and night time at 10 wks on HFD. For FIGS. 1A-1D and 1I, the number of mice was 8 in both the control or butyrate groups. For FIGS. 1E-1G, the number of mice was 10 in both the control or butyrate group. Values given in FIGS. 1A-1I are the mean±SE. *P<0.05, **P<0.001 by Student's t test. […]

The mark [1] stands for this setting: butyrate 5% w/w in HFD vs control, metabolic chamber, weeks 1 and 10.
Setting [2] is: butyrate 5% w/w in HFD, NMR, change during 16 weeks.

Structures are written as SMILES.

Take `CCCC(=O)[O-].[Na+]` [sodium butyrate]: the “toxicity (by food intake and physical activity)” value (butyrate 5% w/w in HFD) is on record as “no toxicity was observed”. Also, the calorie intake result (butyrate 5% w/w in HFD vs HFD control, first ten weeks) is listed as “significantly higher at all of the time points”. In addition, the “body length (mouse growth)” value (butyrate 5% w/w in HFD vs control) is recorded as “identical between the two groups”. The spontaneous physical activity entry (butyrate 5% w/w in HFD vs control, 10 wks on HFD, day and night) is “not reduced”. In addition, under setting [1], the energy expenditure entry is “elevated at the night time” and the oxygen consumption result is given as “elevated at the night time”. The “respiratory exchange ratio (RER)” value (butyrate 5% w/w in HFD vs control, weeks 1 and 10) was “reduced during the day and night time”. Besides, under setting [2], the “fat content (adiposity)” value is “not significantly changed” and the lean mass entry is given as “not significantly changed”. Moreover, for the setting “butyrate 5% w/w in HFD, change during 16 weeks”, the body weight entry was “not significantly changed”. Moreover, the body fat content (butyrate 5% w/w in HFD, without a reduction in food intake) came to 10%. In addition, the hepatic steatosis entry (mice on high fat diet with SB, sixteen weeks) is listed as “reduced”.
